This is an account of results in patent publication US8703758B2, “Bicyclic compound” (Takeda Pharmaceutical Company Limited, priority 2010, dated 2014).

In one series the target is T1, human ACC2 (Homo sapiens, UniProt O00763).
T1 construct: His6 (from vector pFAST-BacHTa); made in house; host or cells: SF-9 insect cells, recombinant baculovirus BAC-ACC2 (Nd)
Kind of series: Measurement of ACC2 inhibitory activity (malachite green, recombinant ACC2 (Nd)). Particulars: read-out: ACC2 inhibitory rate (%). Format: biochemical. The protocol:
The ACC2 inhibitory action of the compound of the present invention was evaluated by the following method.
(1) Cloning of Human ACC2 Gene and Preparation of Recombinant Baculovirus
Human ACC2 gene was cloned by PCR using a human skeletal muscle cDNA library (Clontech) as a template and Primer 1 and Primer 2 shown below. Primer 1 and Primer 2 were prepared by adding SalI, XbaI restriction enzyme recognition sequences based on the information of the base sequence of human ACC2 gene (Genbank Accession U89344).
PCR was performed using Pyrobest DNA polymerase (TAKARA BIO INC.). The obtained PCR product was cloned to pT7 Blue vector (Novagen) and after confirmation of the base sequence, digested with restriction enzymes SalI and XbaI. The obtained DNA fragment was inserted into pFAST-BacHTa (Invitrogen) digested with restriction enzymes SalI and XbaI to give expression plasmid ACC2/pFAST-BacHTa.
A plasmid for expression of ACC2 without a mitochondrial targeting sequence was prepared by PCR using the expression plasmid as a template, and Primer 3 (SalI restriction enzyme recognition sequence was added) and Primer 4 prepared by reference to the information of human ACC2 gene base sequence (Genbank Accession U89344).
PCR was performed using Pyrobest-DNA polymerase (TAKARA BIO INC.). The obtained PCR product was cloned to pT7 Blue vector (Novagen) and after confirmation of the base sequence, digested with restriction enzymes SalI and AflII. The obtained DNA fragment was inserted into ACC2/pFAST-BacHTa digested with restriction enzymes SalI and AflII to give expression plasmid ACC2mito7/pFAST-BacHTa.
Using the expression plasmid ACC2mito7/pFAST-BacHTa and BAC-TO-BAC Baculovirus Expression System (Invitrogen), virus stock BAC-ACC2 of recombinant Baculovirus (N terminal deleted (hereinafter Nd)) was prepared.
(2) Preparation of ACC2 (Nd) Protein
SF-9 cells (Invitrogen) were inoculated to a medium (2 L) for insect cells (Sf-900IISFM medium (Invitrogen) containing 10% fetal bovine serum (Trace), 50 mg/L Gentamicin (Invitrogen), 0.1% Pluronic F-68 (Invitrogen)) at 0.5×10^6 cells/mL, and cultured with shaking in Wave Bioreactor (Wave) at 27° C., 20 rpm, rocking angle 6°, oxygen concentration 30%.
On day 4 of the culture, 3 L of the medium for insect cells was added, the rocking angle was set to 8°, and the cells were further cultured. On day 5 of the culture, 100 mL of recombinant Baculovirus BAC-ACC2 (Nd) was added, 5 L of the medium for insect cells was further added, the rocking angle was set to 11°, and the cells were cultured for 3 days. The culture medium was centrifuged at 1000×g for 10 min to give virus-infected cells. The cells were washed with phosphate buffered saline (Invitrogen) and centrifuged under the same conditions. The obtained cells were cryopreserved at −80° C.
The cryopreserved cells were thawed in ice and suspended in 900 mL of 25 mM HEPES buffer (pH 7.5) containing 10% Glycerol, 0.13 M NaCl, 1 mM EDTA, 25 mM Sodium β-Glycerophosphate and 1 mM Sodium Orthovanadate, and supplemented with Complete Protease Inhibitor (Nippon Boehringer Ingelheim Co., Ltd.). The obtained suspension was homogenized three times in a polytron homogenizer (Kinematica) at 20,000 rpm for 30 sec. The obtained cell disruption solution was clarified by centrifugation at 31000×g for 60 min, and filtered through a 0.45 μm filter. The filtrate was passed through a column packed with 60 mL of Ni-NTA Super Flow Gel (QUIAGEN) at a flow rate of about 5 mL/min. The column was washed with buffer A (50 mM HEPES (pH 7.5) containing 0.3 M NaCl), further washed with buffer A containing 20 mM Imidazole, and eluted with buffer A containing 100 mM Imidazole. The eluate was concentrated with Vivaspin 20 (Vivascience) with a molecular weight cut off of 30K. The obtained concentrate was dialyzed against 50 mM HEPES (pH 7.5) containing 10 mM MgCl2, 2 mM Dithiothreitol, 10 mM Tripotassium Citrate and 0.3 M NaCl. The inner dialysate was filtered through a 0.22 μm filter to give ACC2 (Nd). […]

The nature of series [1]: Body weight after 4 weeks of oral administration in rats on Western diet (anti-obesity action). Type of series: in vivo, rat. The conditions noted are these: male F344/Jcl rats; for body weight after administration for 4 weeks: Western diet, Mean ± S.D., N = 6. The method, then:
6-week-old male F344/Jcl rats (CLEA Japan, Inc., Tokyo) were individually reared immediately after purchase and Western diet (D12079B, Research diet) was given. From the next day, an acclimation dosing (0.5% Methyl Cellulose, 5 mL/kg, oral administration) was started (once between 8:00 AM and 11:00 AM) and body weight and food consumption amount were appropriately measured. The rats with body weight and consumption amount extremely out of the average values in the acclimation dosing period were excluded. At the stage of 7-week-old, the body weight, food consumption amount, and body fat by Echo-MRI were measured, and the rats were grouped (6 per group) based on these measurement results. During 4 weeks of the test period, body weight was measured between 8:00 AM and 11:00 AM, and a solvent (0.5% Methyl Cellulose) or a test compound (0.5% Methyl Cellulose suspension) was consecutively administered by gavage at 5 mL/kg.
4 Weeks later, the body weight was measured in the morning. All values show mean±standard deviation and Williams' test and t-test were used for statistical analysis.

The nature of series [2]: Respiratory quotient (RQ) measurement in rats on Western diet. The conditions noted are these: 20 mg/kg by gavage, male F344/Jcl rats, Mean ± S.D., N = 5. Type of series: in vivo, rat. The method, then: 5-week-old male F344/Jcl rats (CLEA Japan, Inc., Tokyo) were acclimated to the rearing environment for 1 week after purchase and the diet was changed to Western diet (D12079B, Research diet). They were used for the experiment of Respiratory quotient (RQ) measurement at 8-week-old. For the RQ measurement experiment, the body weight was measured in the late afternoon (15:30-16:30) of the previous day and the morning (8:00-9:00) of the day, and the rats with high or low body weight increase were excluded. To the animals were administered by gavage 15 mL/kg of a liquid diet (F2LCW, Oriental Yeast Co., Ltd) prepared to a concentration of 4.95 g/15 mL (1.436 kcal/mL), and they were placed in an indirect calorimeter (Oxymax) chamber manufactured by Columbus Instruments, and RQ was recorded every 10 min. RQ values were confirmed about 1 hr after the start of the measurement and the animals were grouped (5 per group) such that a difference between groups would be small. For medication, a solvent (0.5% Methyl Cellulose, Wako Pure Chemical Industries, Ltd.) or a test compound (0.5% Methyl Cellulose suspension) was administered by gavage at 5 mL/kg. RQ was measured at 10 minute intervals from 0 to 3 hours after administration, and the average thereof was calculated. All values are shown in mean±standard deviation and statistical analysis was performed by the Dunnett-test.

T1 sequence (O00763 117-2458 limits assumed): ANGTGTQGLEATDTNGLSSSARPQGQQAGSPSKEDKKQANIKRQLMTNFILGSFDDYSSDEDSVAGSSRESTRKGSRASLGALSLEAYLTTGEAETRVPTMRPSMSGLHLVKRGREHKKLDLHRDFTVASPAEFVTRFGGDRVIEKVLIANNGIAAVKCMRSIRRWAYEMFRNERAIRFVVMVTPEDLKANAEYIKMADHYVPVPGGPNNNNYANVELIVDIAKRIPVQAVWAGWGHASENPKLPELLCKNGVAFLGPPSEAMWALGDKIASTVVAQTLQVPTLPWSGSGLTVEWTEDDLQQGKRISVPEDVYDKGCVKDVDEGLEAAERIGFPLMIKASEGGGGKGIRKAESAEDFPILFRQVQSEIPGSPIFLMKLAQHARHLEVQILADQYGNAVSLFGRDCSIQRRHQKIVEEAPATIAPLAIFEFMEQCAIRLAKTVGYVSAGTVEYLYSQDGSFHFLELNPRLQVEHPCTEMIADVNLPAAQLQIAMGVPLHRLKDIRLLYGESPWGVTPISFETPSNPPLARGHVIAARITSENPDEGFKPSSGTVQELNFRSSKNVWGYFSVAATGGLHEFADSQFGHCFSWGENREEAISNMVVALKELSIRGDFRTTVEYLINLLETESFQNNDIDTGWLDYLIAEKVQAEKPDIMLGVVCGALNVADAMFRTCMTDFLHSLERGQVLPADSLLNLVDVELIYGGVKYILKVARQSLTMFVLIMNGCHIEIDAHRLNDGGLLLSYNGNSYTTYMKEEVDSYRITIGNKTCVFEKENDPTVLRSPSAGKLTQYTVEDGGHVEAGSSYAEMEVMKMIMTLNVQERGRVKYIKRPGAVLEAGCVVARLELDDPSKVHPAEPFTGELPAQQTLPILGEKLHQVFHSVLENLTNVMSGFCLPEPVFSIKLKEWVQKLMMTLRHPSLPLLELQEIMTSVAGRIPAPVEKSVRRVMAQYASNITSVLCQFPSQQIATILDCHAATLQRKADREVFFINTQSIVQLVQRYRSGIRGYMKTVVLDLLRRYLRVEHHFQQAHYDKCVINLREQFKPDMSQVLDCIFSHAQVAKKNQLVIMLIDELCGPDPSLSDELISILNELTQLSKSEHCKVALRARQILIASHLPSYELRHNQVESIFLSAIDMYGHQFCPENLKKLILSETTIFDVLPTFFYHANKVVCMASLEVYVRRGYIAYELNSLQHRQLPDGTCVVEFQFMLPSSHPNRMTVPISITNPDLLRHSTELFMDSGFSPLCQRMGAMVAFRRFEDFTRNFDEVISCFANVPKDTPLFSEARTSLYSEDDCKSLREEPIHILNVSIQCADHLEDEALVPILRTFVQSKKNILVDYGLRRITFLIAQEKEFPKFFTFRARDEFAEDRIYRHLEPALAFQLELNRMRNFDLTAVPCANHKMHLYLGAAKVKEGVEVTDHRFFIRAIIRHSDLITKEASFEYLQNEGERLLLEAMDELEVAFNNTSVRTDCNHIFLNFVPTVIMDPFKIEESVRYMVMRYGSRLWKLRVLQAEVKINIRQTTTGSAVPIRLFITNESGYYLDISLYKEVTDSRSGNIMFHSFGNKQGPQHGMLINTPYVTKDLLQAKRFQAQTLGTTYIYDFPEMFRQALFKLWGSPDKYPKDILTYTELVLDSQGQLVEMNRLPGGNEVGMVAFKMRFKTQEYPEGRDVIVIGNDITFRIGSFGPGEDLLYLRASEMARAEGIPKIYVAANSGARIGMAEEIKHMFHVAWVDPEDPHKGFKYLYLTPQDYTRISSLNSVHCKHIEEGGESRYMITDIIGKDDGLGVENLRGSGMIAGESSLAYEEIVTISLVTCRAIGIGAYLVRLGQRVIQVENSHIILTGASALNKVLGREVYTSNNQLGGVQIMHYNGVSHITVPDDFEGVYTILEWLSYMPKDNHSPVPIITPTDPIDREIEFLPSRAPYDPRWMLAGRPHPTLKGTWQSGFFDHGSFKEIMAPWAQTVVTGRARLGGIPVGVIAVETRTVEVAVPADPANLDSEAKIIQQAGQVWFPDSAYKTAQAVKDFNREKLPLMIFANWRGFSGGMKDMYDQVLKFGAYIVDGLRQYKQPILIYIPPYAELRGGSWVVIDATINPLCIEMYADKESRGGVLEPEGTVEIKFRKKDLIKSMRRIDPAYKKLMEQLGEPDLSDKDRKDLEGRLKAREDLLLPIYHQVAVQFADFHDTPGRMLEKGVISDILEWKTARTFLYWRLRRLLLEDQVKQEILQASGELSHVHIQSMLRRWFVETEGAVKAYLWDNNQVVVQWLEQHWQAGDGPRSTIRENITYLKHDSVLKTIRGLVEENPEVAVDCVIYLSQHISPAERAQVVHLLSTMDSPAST

As a reminder, the melting point is the temperature of the solid-liquid transition. In turn, `CC(=O)NC(C)CCC1CCN(c2nc3ccc(OCC4CC4)cc3o2)CC1` (racemic) [Example 5, N-(3-{1-[6-(cyclopropylmethoxy)-1,3-benzoxazol-2-yl]piperidin-4-yl}-1-methylpropyl)acetamide] gave a melting point of 131 to 132 °C. Further, the inhibition at 10 µM at human ACC2 is 104%.

`CC(=O)N[C@@H](C)COC1CCN(c2nc3ccc(OCC4CC4)cc3o2)CC1` [Example 1, N-[(1S)-2-({1-[6-(cyclopropylmethoxy)-1,3-benzoxazol-2-yl]piperidin-4-yl}oxy)-1-methylethyl]acetamide] gave a melting point of 122 to 123 °C. Moreover, on human ACC2, the inhibition at 10 µM was found to be 97%. Further, in series [1] (20 mg/kg/day by gavage), the “comparison with control group (body weight after 4 weeks)” value (“comparison with control group” below) is reported as −6.1% and the “body weight after administration for 4 weeks” value (“body weight … for 4 weeks” for short) is 265.1 ± 7.2. For the same compound, in series [2], the “average RQ of 0 to 3 hours after administration” value was determined as 0.795 ± 0.013.

`CC(=O)N[C@@H](C)COC1CCN(c2nc3cc(OCC4CC4)ccc3o2)CC1` [Example 2, N-[(1S)-2-({1-[5-(cyclopropylmethoxy)-1,3-benzoxazol-2-yl]piperidin-4-yl}oxy)-1-methylethyl]acetamide] yielded a melting point of 99 to 100 °C. For the same compound, on human ACC2, the inhibition at 10 µM is 100%. In addition, in series [1] (10 mg/kg/day by gavage), the “comparison with control group” value was −5.4% and the “body weight … for 4 weeks” value stood at 267.2 ± 4.1. In series [1] (20 mg/kg/day by gavage), the “comparison with control group” value is on record as −6.0% and the “body weight … for 4 weeks” value came to 265.4 ± 10.8. Further, the “average RQ of 0 to 3 hours after administration” value in series [2] came out at 0.787 ± 0.019.

For `CC(=O)N[C@@H](C)COC1CCN(c2nc3cc(OCC4CC4)ccc3s2)CC1` [Example 3, N-[(1S)-2-({1-[5-(cyclopropylmethoxy)-1,3-benzothiazol-2-yl]piperidin-4-yl}oxy)-1-methylethyl]acetamide], the inhibition at 10 µM at human ACC2 is 104%.

In the case of `CC(COC1CCN(c2nc3ccc(OCC4CC4)cc3o2)CC1)Nc1ccon1` (stereo not drawn) [Example 4, N-[2-({1-[6-(cyclopropylmethoxy)-1,3-benzoxazol-2-yl]piperidin-4-yl}oxy)-1-methylethyl]isoxazol-3-amine], at human ACC2, the inhibition at 10 µM is 100%.

In turn, `CC(=O)N[C@@H](C)CCC1CCN(c2nc3ccc(OCC4CC4)cc3o2)CC1` [Example 5a, N-[(1S)-(3-{1-[6-(cyclopropylmethoxy)-1,3-benzoxazol-2-yl]piperidin-4-yl}-1-methylpropyl)]acetamide] registered a melting point of 138.2 to 138.4 °C. Besides, the inhibition at 10 µM at human ACC2 amounted to 106%.

For `CC(=O)N[C@@H](C)COC1CCN(c2nc3cc(OCC4CCC4)ccc3o2)CC1` [Example 6, N-[(1S)-2-({1-[5-(cyclobutylmethoxy)-1,3-benzoxazol-2-yl]piperidin-4-yl}oxy)-1-methylethyl]acetamide], the melting point was 109 to 110 °C. Besides, the inhibition at 10 µM on human ACC2 was 98%.

Turning to `Cc1conc1NC(C)COC1CCN(c2nc3ccc(OCC4CC4)cc3o2)CC1` (stereo not drawn) [Example 7, N-[2-({1-[6-(cyclopropylmethoxy)-1,3-benzoxazol-2-yl]piperidin-4-yl}oxy)-1-methylethyl]-4-methylisoxazol-3-amine], the inhibition at 10 µM at human ACC2 was 100%.

Consider `CC(=O)N[C@@H](C)COC1CCN(c2nc3ccc(OCC(C)C)cc3o2)CC1` [Example 33, N-[(1S)-1-methyl-2-({1-[6-(2-methylpropoxy)-1,3-benzoxazol-2-yl]piperidin-4-yl}oxy)ethyl]acetamide], for which the melting point was in the range of 103 to 105 °C. In addition, the inhibition at 10 µM at human ACC2 is 99%.

As to `CC(=O)N[C@@H](C)COC1CCN(c2nc3ccc(OCC4CCC4)cc3o2)CC1` [Example 34, N-[(1S)-2-({1-[6-(cyclobutylmethoxy)-1,3-benzoxazol-2-yl]piperidin-4-yl}oxy)-1-methylethyl]acetamide], on human ACC2, the inhibition at 10 µM came out at 102%.

In turn, `CC(=O)N[C@@H](C)COC1CCN(c2nc3ccc(OCCC4CC4)cc3o2)CC1` [Example 35, N-[(1S)-2-({1-[6-(2-cyclopropylethoxy)-1,3-benzoxazol-2-yl]piperidin-4-yl}oxy)-1-methylethyl]acetamide] registered a melting point of 99.3 to 99.6 °C. The inhibition at 10 µM on human ACC2 was found to be 102%.

In turn, `CC(=O)NC(C)CO[C@H]1CC[C@H](c2cc3ccc(OCC4CC4)cc3o2)CC1` (stereo partly drawn) [Example 38, N-[2-({trans-4-[6-(cyclopropylmethoxy)-1-benzofuran-2-yl]cyclohexyl}oxy)-1-methylethyl]acetamide] showed a melting point of 104 to 105 °C.

As to `CC(=O)NC(C)CO[C@H]1CC[C@H](c2nc3ccc(OCC4CC4)cc3o2)CC1` (stereo partly drawn) [Example 39, N-[2-({trans-4-[6-(cyclopropylmethoxy)-1,3-benzoxazol-2-yl]cyclohexyl}oxy)-1-methylethyl]acetamide], the melting point lay within 131 to 132 °C.

`CC(=O)N[C@@H](C)CO[C@H]1CC[C@H](n2cc3ccc(OCCC4CC4)cc3n2)CC1` [Example 40, N-[(1S)-2-({trans-4-[6-(2-cyclopropylethoxy)-2H-indazol-2-yl]cyclohexyl}oxy)-1-methylethyl]acetamide] showed a melting point of 98 to 99 °C.

Turning to `CC(=O)NC(C)CC[C@H]1CC[C@H](n2cc3ccc(OCC4CC4)cc3n2)CC1` (stereo partly drawn) [Example 41, N-(3-{trans-4-[6-(cyclopropylmethoxy)-2H-indazol-2-yl]cyclohexyl}-1-methylpropyl)acetamide], the melting point was in the range of 139 to 140 °C.
